According to PubChem BioAssay (NCI):
Where “and” joins values, the source holds several entries; their conditions need not be identical. Equal entries are not always repeated.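 The compound was tested at five concentrations on cells cultured in 96-well plates, with a 48-hour exposure period. Here, GI50 denotes the concentration required for 50% inhibition of growth. TGI denotes the concentration required for complete inhibition of growth.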

Columns and labels:
Assay in all cases: growth of human tumour cells (NCI), 48 h
SK-MEL-2 melanoma = system: SK-MEL-2 melanoma
HL-60(TB) leukemia = system: HL-60(TB) leukemia
HCT-15 colon = system: HCT-15 colon
DLD-1 colon = system: DLD-1 colon
OVCAR-4 ovarian = system: OVCAR-4 ovarian
UO-31 renal = system: UO-31 renal
OVCAR-5 ovarian = system: OVCAR-5 ovarian
U251 CNS = system: U251 CNS
SNB-78 CNS = system: SNB-78 CNS
BT-549 breast = system: BT-549 breast

Compound	TGI (SK-MEL-2 melanoma)	TGI (HL-60(TB) leukemia)	TGI (HCT-15 colon)	TGI (DLD-1 colon)	TGI (OVCAR-4 ovarian)	TGI (UO-31 renal)	TGI (OVCAR-5 ovarian)	TGI (U251 CNS)	TGI (SNB-78 CNS)	GI50 (SK-MEL-2 melanoma)	GI50 (HL-60(TB) leukemia)	GI50 (HCT-15 colon)	GI50 (OVCAR-4 ovarian)	TGI (BT-549 breast)	GI50 (UO-31 renal)	GI50 (OVCAR-5 ovarian)	GI50 (U251 CNS)	GI50 (BT-549 breast)
N#CC(C#N)=CSc1ccccc1	72.3 µM	> 100 µM	> 100 µM	63.3 µM	> 100 µM	39.5 µM	68.9 µM	52.4 µM	–	–	–	–	–	–	–	–	–	–
O=C(O)CCC1(Br)CCCCC(Br)C1=O (centres undefined)	> 100 µM	> 100 µM	> 100 µM	–	> 100 µM	–	> 100 µM	> 100 µM	> 100 µM	–	–	–	–	–	–	–	–	–
O=C(O)C#CCO	> 100 µM	> 100 µM	> 100 µM	–	> 100 µM	> 100 µM	> 100 µM	> 100 µM	> 100 µM	–	–	–	–	–	–	–	–	–
Clc1ccc(OC2CCO2)cc1Cl (centres undefined)	–	> 100 µM	36.8 µM	> 100 µM	> 100 µM	> 100 µM	> 100 µM	> 100 µM	> 100 µM	–	–	–	–	–	–	–	–	–
C=CCN(/C=C1\C(=O)O[C@H](COC)[C@@]2(C)C1=C(O)C(=O)C1=C2[C@H](OC(C)=O)C[C@]2(C)C(=O)CC[C@@H]12)CC=C	20 µM and 8.33 µM	7.46 µM and 11.2 µM	20 µM and > 100 µM	–	20 µM and > 100 µM	20 µM and > 100 µM	20 µM and 76.4 µM	20 µM and > 100 µM	–	3.67 µM and 1.48 µM	0.21 µM and 0.439 µM	2.62 µM and 0.787 µM	2.97 µM and 2.58 µM	20 µM and 3.68 µM	1.51 µM and 0.331 µM	2.34 µM and 0.737 µM	1.6 µM and 3.35 µM	–
CC[CH2][Sn]([Cl])([Cl])[CH2]CC	25.6 µM	> 100 µM	25.5 µM	–	25.6 µM	19.5 µM	31 µM	16.5 µM	–	10.8 µM	2.94 µM	11.3 µM	12.9 µM	20.5 µM	4.47 µM	16.6 µM	3.9 µM	7.87 µM
CC(=O)OC1C(CCl)OC(N=[N+]=[N-])C(OC(C)=O)C1OC(C)=O (centres undefined)	> 100 µM	> 100 µM	> 100 µM	> 100 µM	> 100 µM	> 100 µM	–	> 100 µM	–	–	–	–	–	–	–	–	–	–
O=C(CCCc1ccccn1)c1ccccc1	> 100 µM	> 100 µM	> 100 µM	–	> 100 µM	> 100 µM	> 100 µM	> 100 µM	–	–	–	–	–	> 100 µM	–	–	–	–
Cc1cc(C)cc(Sc2c([N+](=O)[O-])ncn2C)c1	25.8 µM	–	–	27.5 µM	44.1 µM	85.9 µM	53.5 µM	36.7 µM	58.9 µM	–	–	–	–	–	–	–	–	–
COc1ccc(Cc2cnc(NC(=O)c3sc4ccccc4c3Cl)s2)cc1	> 100 µM	0.642 µM	> 100 µM	–	> 100 µM	> 100 µM	> 100 µM	> 100 µM	–	0.703 µM	0.256 µM	0.378 µM	2.82 µM	> 100 µM	0.843 µM	0.587 µM	0.382 µM	1.18 µM
c1ccc(-c2nn(-c3ccccc3)[n+](-c3cccc4ccccc34)n2)cc1	12 µM	2.06 µM	> 100 µM	–	12.4 µM	> 100 µM	63.2 µM	> 100 µM	–	2.92 µM	0.386 µM	31.5 µM	0.394 µM	17.9 µM	14 µM	4.78 µM	0.967 µM	1.85 µM
OC(COc1cccc2ccccc12)CN1CCN(c2ccccc2)CC1 (centres undefined)	30.6 µM	52.4 µM	35.7 µM	–	27.6 µM	20.4 µM	30.8 µM	32.1 µM	–	16.2 µM	21.1 µM	18.8 µM	14.1 µM	32.2 µM	5.94 µM	16.4 µM	17.3 µM	17.9 µM
O=C(c1cccs1)c1c(C(F)(F)F)n([O-])c2ccc(F)cc2[n+]1=O	2.37 µM	0.394 µM	1.64 µM	–	2.75 µM	2.58 µM	3.21 µM	2.6 µM	–	0.841 µM	0.154 µM	0.435 µM	1.41 µM	2.6 µM	1.3 µM	1.76 µM	1.31 µM	0.815 µM
CC(=O)OC[C@]12CC[C@@H]([C@@H](C)C(N)=O)[C@@H]1[C@H]1CC[C@@H]3[C@@]4(C)CC[C@H](OC(C)=O)C(C)(C)[C@@H]4CC[C@@]3(C)[C@]1(C)CC2	27.5 µM	8.4 µM	15.3 µM	–	18.5 µM	21.1 µM	32.2 µM	20.4 µM	–	10.8 µM	2.76 µM	4.04 µM	4.72 µM	22.6 µM	7.57 µM	14.4 µM	5.1 µM	8.17 µM
